In patent publication US20230312578A1, “6H-INDOLO[2,3-B]QUINOXALINE DERIVATIVES USEFUL IN THERAPY” (Vironova Medical AB, priority 2020, published 2023):

Key:
Assay type in all cases: cell-based
IGR-OV1 = assay: Human tumor cell line growth assay (SRB); details: Homo sapiens, IGROV-1; Ovarian, IGR-OV1, 48 h
[1] = Human tumor cell line growth assay (SRB); details: human, IGR-OV1 cells (ovarian), IGR-OV1, 48 h, read-out: LC50
OVCAR-4 = assay: Human tumor cell line growth assay (SRB); details: Homo sapiens; Ovarian, OVCAR-4, 48 h
[2] = Human tumor cell line growth assay (SRB); details: human, OVCAR-4 cells (ovarian), OVCAR-4, 48 h, read-out: LC50
K-562 = assay: Human tumor cell line growth assay (SRB); details: K562, Leukemia, K-562, 48 h; for CC50: read-out: LC50 (the source's name)
[3] = Human tumor cell line growth assay (SRB); details: human, HCT-15 cells (colon), HCT-15, 48 h
NCI/ADR-RES = assay: Human tumor cell line growth assay (SRB); details: Ovarian, 48 h; for CC50: read-out: LC50 (the source's name)
SN12C = assay: Human tumor cell line growth assay (SRB); details: Renal, 48 h; for CC50: read-out: LC50 (the source's name)
A498 = assay: Human tumor cell line growth assay (SRB); details: Renal, A498, 48 h; for CC50: read-out: LC50 (the source's name)
MCF7 = assay: Human tumor cell line growth assay (SRB); details: Breast, MCF7, 48 h; for CC50: read-out: LC50 (the source's name)
T-47D = assay: Human tumor cell line growth assay (SRB); details: T47D, Breast, 48 h; for CC50: read-out: LC50 (the source's name)
DU-145 = assay: Human tumor cell line growth assay (SRB); details: Prostate, DU-145, 48 h; for CC50: read-out: LC50 (the source's name)
MDA-MB-435 = assay: Human tumor cell line growth assay (SRB); details: Homo sapiens; Melanoma, MDA-MB-435, 48 h
[4] = Human tumor cell line growth assay (SRB); details: human, MDA-MB-435 cells (melanoma), MDA-MB-435, 48 h, read-out: LC50
M14 = assay: Human tumor cell line growth assay (SRB); details: Homo sapiens; Melanoma, M14, 48 h
[5] = Human tumor cell line growth assay (SRB); details: human, M14 cells (melanoma), M14, 48 h, read-out: LC50
SF-268 = assay: Human tumor cell line growth assay (SRB); details: Homo sapiens; CNS, SF-268, 48 h
[6] = Human tumor cell line growth assay (SRB); details: human, SF-268 cells (CNS), SF-268, 48 h
NCI-H522 = assay: Human tumor cell line growth assay (SRB); details: Homo sapiens; NSCLC, NCI-H522, 48 h
[7] = Human tumor cell line growth assay (SRB); details: human, NCI-H522 cells (NSCLC), NCI-H522, 48 h
[8] = Human tumor cell line growth assay (SRB); details: human, SK-MEL-5 cells (melanoma), SK-MEL-5, 48 h
SK-MEL-5 = assay: Human tumor cell line growth assay (SRB); details: Homo sapiens; Melanoma, SK-MEL-5, 48 h
RPMI-8226 = assay: Human tumor cell line growth assay (SRB); details: Homo sapiens; Leukemia, RPMI-8226, 48 h
[9] = Human tumor cell line growth assay (SRB), summary over the panel; details: human, human tumor cell line panel (most cell lines of the panel); for most cell lines of the panel; read-out: LC50
[10] = Human tumor cell line growth assay (SRB); details: human, RPMI-8226 cells (leukemia), RPMI-8226, 48 h, read-out: LC50

Compound	GI50 (IGR-OV1) [nM]	CC50 at 48 h [1] [nM]	GI50 (OVCAR-4) [nM]	GI50 (K-562) [nM]	CC50 (K-562) [nM]	LC50 (concentration killing 50% of cells) at 48 h [3] [nM]	GI50 (NCI/ADR-RES) [nM]	GI50 (SN12C) [nM]	CC50 (SN12C) [nM]	GI50 (A498) [nM]	CC50 (A498) [nM]	GI50 (MCF7) [nM]	CC50 (MCF7) [nM]	GI50 (T-47D) [nM]	GI50 (DU-145) [nM]	CC50 (DU-145) [nM]	GI50 (MDA-MB-435) [nM]	GI50 (M14) [nM]	CC50 at 48 h [5] [nM]	GI50 (SF-268) [nM]	other results
Cc1cc2nc3c4ccccc4n(CCN(C)C)c3nc2cc1C [B220, 2-(2,3-dimethyl-6H-indolo [2,3-b]quinoxalin-6-yl)-N,N-dimethylethanamine, reference compound]	1280	72400	2550	1990	> 100000	> 100000	1390	1080	> 100000	1430	5740	1410	34800	2800	2070	55600	1610	1510	75100	1450	CC50 at 48 h [2]: > 100000 nM; CC50 (NCI/ADR-RES): 90200 nM; CC50 (T-47D): > 100000 nM; CC50 at 48 h [4]: 7490 nM; LC50 (50% lethal concentration) at 48 h [6]: 28000 nM; GI50 (NCI-H522): 673 nM; LC50 at 48 h [7]: > 100000 nM; LC50 (concentration killing 50% of tumour cells) at 48 h [8]: 12000 nM; GI50 (SK-MEL-5): 1700 nM
COc1ccc2c(c1)c1nc3cc(C)c(C)cc3nc1n2CCN(C)C [JBA-094, 2-(9-methoxy-2,3-dimethyl-6H-indolo[2,3-b]quinoxalin-6-yl)-N,N-dimethylethanamine]	396	5410	1020	444	> 100000	5570	588	503	5240	1480	5560	332	4790	1320	1010	5320	1110	1120	5890	1330	CC50 at 48 h [2]: 5560 nM; GI50 (RPMI-8226): 640 nM; CC50 (T-47D): > 100000 nM; CC50 at 48 h [4]: 6030 nM; LC50 (50% lethal concentration) at 48 h [6]: 8230 nM; GI50 (NCI-H522): 515 nM; LC50 at 48 h [7]: > 100000 nM; LC50 (concentration killing 50% of tumour cells) at 48 h [8]: 5580 nM; GI50 (SK-MEL-5): 1660 nM
Cc1cc2nc3c4cc([N+](=O)[O-])ccc4n(CCN(C)C)c3nc2cc1C [JBA-185, 2-(2,3-dimethyl-9-nitro-6H-indolo[2,3-b]quinoxalin-6-yl)-N,N-dimethylethanamine]	357	> 100000	452	360	> 100000	> 100000	415	479	> 100000	1260	5500	356	> 100000	499	540	> 100000	541	499	7280	793	CC50 at 48 h [2]: > 100000 nM; CC50 at 48 h [9]: > 100000 nM; CC50 (NCI/ADR-RES): > 100000 nM; GI50 (RPMI-8226): 389 nM; CC50 at 48 h [10]: > 100000 nM; CC50 (T-47D): > 100000 nM; CC50 at 48 h [4]: 4500 nM; LC50 (50% lethal concentration) at 48 h [6]: > 100000 nM; GI50 (NCI-H522): 595 nM; LC50 at 48 h [7]: > 100000 nM; LC50 (concentration killing 50% of tumour cells) at 48 h [8]: 4770 nM; GI50 (SK-MEL-5): 1040 nM
Cc1cc2nc3c4cc(N)ccc4n(CCN(C)C)c3nc2cc1C [JBD-136, 6-(2-(dimethylamino)ethyl)-2,3-dimethyl-6H-indolo [2,3-b]quinoxalin-9-amine]	596	> 100000	1700	426	65600	> 100000	506	553	> 100000	1070	5860	675	57500	2260	1550	47800	1050	1120	6430	1570	CC50 at 48 h [2]: 59000 nM; CC50 (NCI/ADR-RES): > 100000 nM; GI50 (RPMI-8226): 740 nM; CC50 at 48 h [10]: 95200 nM; CC50 (T-47D): > 100000 nM; CC50 at 48 h [4]: 5600 nM; LC50 (50% lethal concentration) at 48 h [6]: 42700 nM; GI50 (NCI-H522): 771 nM; LC50 at 48 h [7]: > 100000 nM; LC50 (concentration killing 50% of tumour cells) at 48 h [8]: 5720 nM; GI50 (SK-MEL-5): 1690 nM
Cc1cc2nc3c4cc(O)ccc4n(CCN(C)C)c3nc2cc1C [JBD-139, 6-(2-(dimethylamino)ethyl)-2,3-dimethyl-6H-indolo [2,3-b]quinoxalin-9-ol]	392	98200	882	338	> 100000	> 100000	436	397	> 100000	948	5690	351	> 100000	686	598	> 100000	529	378	5150	822	CC50 (NCI/ADR-RES): > 100000 nM; GI50 (RPMI-8226): 366 nM; LC50 (50% lethal concentration) at 48 h [6]: > 100000 nM; GI50 (NCI-H522): 390 nM; LC50 at 48 h [7]: > 100000 nM; LC50 (concentration killing 50% of tumour cells) at 48 h [8]: 5330 nM; GI50 (SK-MEL-5): 1450 nM
